Data from US20200078453A1, “METHODS OF TREATING A MAMMAL SUFFERING FROM OR SUSCEPTIBLE TO AN IMMUNE REACTION TO DRUG TREATMENT” (Idogen AB, priority 2015, published 2020).
Where two headings read alike, the source gives them in different places.

Assays:
[1] = system: IDO1 gene expression (mRNA level) in THP-1 cells; experiment: Induction of IDO1 in THP-1 cells, RT-qPCR; type: cell-based, human; settings: compound alone, 0.1-10 micromolar
Method: THP-1 cells were harvested from appropriate number of T75 flasks. Cells were counted in a Bürker chamber, stained with 0.4% Trypan Blue. The appropriate number of cells for each experiment were transferred to a new tube and centrifuged at 1200 rpm, 5 min at room temperature (RT). The supernatant was discarded and fresh RPMI with 5% FBS were added to get a cell concentration of 2×10^5 cells/mL. The compound was added to the five separate wells in 6-well plates such that five different final concentrations were obtained after adding the cells. A control was added to one well in the 6-well plate to which cells were added. 1×10^6 cells per well were seeded out to achieve a total volume of 5 mL per well. The cells were incubated at 37° C. in 5% CO2 for 96 hours. After 96 hours the assay was stopped and the cells were lysed for the isolation of RNA.
Total RNA was extracted from THP-1 cells using the RNA RNeasy Mini extraction kit (Qiagen), according to the manufacturer's instructions. […]
Following RNA extraction and quantification of gene expression by RT-qPRC, as described above, induction of IDO1 gene expression using Samples 1 to 6 was investigated. […]
Following RNA extraction and quantification of gene expression by RT-qPRC, as described above, induction of IDO1 gene expression using Samples 7 to 12 was investigated.

[2] = cited from earlier work
[3] = cited from earlier work; remark: listed apart in the source

Compound	increase of IDO1 gene expression (maximum) [1]	half-life ([2]; 37° C. in PBS at pH 1.0)	half-life ([2]; 37° C. in PBS at pH 7.0)	toxicity ([3]; at high concentrations)	cytotoxicity ([3]; in vitro and in vivo, at used concentrations)
Nc1ncn([C@@H]2O[C@H](CO)[C@@H](O)[C@H]2O)c(=O)n1 [5-azacytidine]	up to 23 fold				
Nc1ncn([C@H]2C[C@H](O)[C@@H](CO)O2)c(=O)n1 [decitabine, 5-aza-2′-deoxycytidine]	up to 101 fold				
O=c1ncccn1[C@@H]1O[C@H](CO)[C@@H](O)[C@H]1O [Zebularine]		approximately 44 h	~21.2 days	toxic	minimally cytotoxic
